Measured values taken from the supplement of paper PMC11451515.

Tested on: P12-Ichikawa
Test: cell viability relative to DMSO control; higher = less cytotoxic
Details: 48 h
Summary of the method: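 Library compounds in DMSO were pin-dosed in an 11-point threefold series (47 μM to 0.79 nM) onto leukemia cells in 1536-well plates (5 μl). Plates held 500 cells/well of NOMO1 or SEM or 1000 cells/well of P12-Ichikawa, each adapted for at least four passages in each medium. Luminescence was read with CellTiter-Glo One after 48 h at 37°C. Viability means the per-plate percentage relative to DMSO wells, using cell-free wells as background.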

[1] = HPLM + 10% dialyzed FBS, 0.000781 µM
[2] = HPLM + 10% dialyzed FBS, 0.00234 µM
[3] = HPLM + 10% dialyzed FBS, 0.00702 µM
[4] = HPLM + 10% dialyzed FBS, 0.0211 µM
[5] = HPLM + 10% dialyzed FBS, 0.0632 µM
[6] = HPLM + 10% dialyzed FBS, 0.19 µM
[7] = HPLM + 10% dialyzed FBS, 0.569 µM
[8] = HPLM + 10% dialyzed FBS, 1.71 µM
[9] = HPLM + 10% dialyzed FBS, 5.12 µM
[10] = HPLM + 10% dialyzed FBS, 15.4 µM
[11] = HPLM + 10% dialyzed FBS, 46.1 µM
[12] = RPMI 5 mM glucose + 10% FBS, 0.000781 µM
[13] = RPMI 5 mM glucose + 10% FBS, 0.00234 µM
[14] = RPMI 5 mM glucose + 10% FBS, 0.00702 µM
[15] = RPMI 5 mM glucose + 10% FBS, 0.0211 µM
[16] = RPMI 5 mM glucose + 10% FBS, 0.0632 µM
[17] = RPMI 5 mM glucose + 10% FBS, 0.19 µM
[18] = RPMI 5 mM glucose + 10% FBS, 0.569 µM
[19] = RPMI 5 mM glucose + 10% FBS, 1.71 µM
[20] = RPMI 5 mM glucose + 10% FBS, 5.12 µM
[21] = RPMI 5 mM glucose + 10% FBS, 15.4 µM
[22] = RPMI 5 mM glucose + 10% FBS, 46.1 µM
[23] = RPMI 5 mM glucose + 10% dialyzed FBS, 0.000781 µM
[24] = RPMI 5 mM glucose + 10% dialyzed FBS, 0.00234 µM
[25] = RPMI 5 mM glucose + 10% dialyzed FBS, 0.00702 µM
[26] = RPMI 5 mM glucose + 10% dialyzed FBS, 0.0211 µM
[27] = RPMI 5 mM glucose + 10% dialyzed FBS, 0.0632 µM
[28] = RPMI 5 mM glucose + 10% dialyzed FBS, 0.19 µM
[29] = RPMI 5 mM glucose + 10% dialyzed FBS, 0.569 µM
[30] = RPMI 5 mM glucose + 10% dialyzed FBS, 1.71 µM
[31] = RPMI 5 mM glucose + 10% dialyzed FBS, 5.12 µM
[32] = RPMI 5 mM glucose + 10% dialyzed FBS, 15.4 µM
[33] = RPMI 5 mM glucose + 10% dialyzed FBS, 46.1 µM

Compound | cell viability [1] [%] | cell viability [2] [%] | cell viability [3] [%] | cell viability [4] [%] | cell viability [5] [%] | cell viability [6] [%] | cell viability [7] [%] | cell viability [8] [%] | cell viability [9] [%] | cell viability [10] [%] | cell viability [11] [%] | cell viability [12] [%] | cell viability [13] [%] | cell viability [14] [%] | cell viability [15] [%] | cell viability [16] [%] | cell viability [17] [%] | cell viability [18] [%] | cell viability [19] [%] | cell viability [20] [%] | cell viability [21] [%] | cell viability [22] [%] | cell viability [23] [%] | cell viability [24] [%] | cell viability [25] [%] | cell viability [26] [%] | cell viability [27] [%] | cell viability [28] [%] | cell viability [29] [%] | cell viability [30] [%] | cell viability [31] [%] | cell viability [32] [%] | cell viability [33] [%]
CNC(=O)[C@H](Cc1ccccc1)NC(=O)[C@H](CC(C)C)[C@H](CSc1cccs1)C(=O)NO | 86.3 | 86.4 | 86.3 | 98.3 | 87.4 | 95.1 | 89.7 | 82.9 | 81.9 | 73.8 | 66.8 | 83.3 | 87.2 | 78.9 | 87 | 78 | 82.8 | 88.1 | 82.9 | 71 | 59.2 | 52.6 | 85.3 | 89.7 | 82.2 | 88.3 | 84.3 | 91 | 90.1 | 79.5 | 72.5 | 63.5 | 53
CC(C)(C)/[N+]([O-])=C/c1ccc([S+](=O)([O-])[O][Na])cc1[S+](=O)([O-])[O][Na] | 110 | 114 | 112 | 122 | 117 | 131 | 127 | 125 | 121 | 119 | 133 | 108 | 96.5 | 108 | 111 | 120 | 123 | 127 | 122 | 126 | 124 | 122 | 108 | 114 | 114 | 121 | 113 | 120 | 124 | 123 | 120 | 119 | 116
Cl.c1cnc2cc3c(cc2n1)C1CNCC3C1 | 108 | 111 | 114 | 114 | 119 | 114 | 117 | 122 | 114 | 114 | 106 | 106 | 115 | 121 | 117 | 122 | 117 | 127 | 118 | 127 | 130 | 130 | 106 | 113 | 112 | 116 | 123 | 114 | 121 | 123 | 121 | 116 | 120
COCCOC(=O)C/1=C(C)/NC/2=C(C1C3=CC=CC(=C3)O)/C(=O)CC(C2)C4=C(OC)C=CC=C4 (stereo unspecified) | 94.3 | 97.9 | 102 | 105 | 110 | 100 | 106 | 105 | 91.5 | 86.7 | 26.8 | 103 | 102 | 104 | 112 | 118 | 110 | 113 | 101 | 96.3 | 89.5 | 54.1 | 94.8 | 97.9 | 91.7 | 104 | 101 | 104 | 101 | 94.7 | 87.6 | 88.1 | 46.8
CSC1=CC(=CC=C1)NC2=NC3=C(C=N2)/C=C(C(=O)N3C)/C4=C(Cl)C=CC=C4Cl | 102 | 95 | 101 | 98.3 | 106 | 110 | 99.2 | 105 | 97.4 | 95.1 | 103 | 99.6 | 111 | 115 | 109 | 115 | 106 | 112 | 112 | 109 | 95.5 | 102 | 110 | 109 | 110 | 90.8 | 110 | 120 | 112 | 112 | 109 | 97.5 | 97.7
CC(C)OC(=O)CCC/C=C\C[C@@H]1[C@@H](/C=C/[C@@H](O)COc2cccc(C(F)(F)F)c2)[C@H](O)C[C@@H]1O | 109 | 120 | 122 | 127 | 115 | 119 | 118 | 115 | 112 | 104 | 65.1 | – | – | – | – | – | – | – | – | – | – | – | 112 | 126 | 120 | 121 | 127 | 123 | 124 | 119 | 110 | 92.7 | 46.1
Cc1nc(Nc2ncc(C(=O)Nc3c(C)cccc3Cl)s2)cc(N2CCN(CCO)CC2)n1 | 108 | 104 | 110 | 104 | 111 | 107 | 107 | 69.6 | 14.2 | 15.5 | 15 | 106 | 109 | 102 | 108 | 113 | 109 | 107 | 102 | 56.8 | 21.3 | 23.4 | 104 | 104 | 113 | 103 | 107 | 106 | 109 | 99.3 | 45.5 | 33.7 | 35.3
NC1CCC(N[C@@H]2C[C@H]2c2ccccc2)CC1 (stereo partly specified) | 87.9 | 92.4 | 94.6 | 94.5 | 102 | 102 | 105 | 99.5 | 106 | 94.7 | 98.5 | 92 | 94.6 | 106 | 102 | 102 | 100 | 95 | 76.6 | 100 | 102 | 91.2 | 92.2 | 98.1 | 105 | 99 | 96.5 | 109 | 103 | 97.8 | 98.2 | 88.9 | 84
CCCCCCCCCCCC(CC1OC(=O)C1CCCCCC)OC(=O)C(CC(C)C)NC=O (stereo unspecified) | 98.6 | 110 | 110 | 105 | 111 | 107 | 119 | 107 | 105 | 84.2 | 3.42 | 105 | 117 | 114 | 120 | 118 | 114 | 114 | 114 | 103 | 85.8 | 10.6 | 101 | 107 | 103 | 108 | 117 | 112 | 116 | 112 | 99.3 | 87.2 | 7.97
COc1nc(-c2ccc3c(c2)OCO3)n(-c2ccc(NC(=O)CSc3ccccc3)cc2)n1 | 109 | 108 | 111 | 107 | 108 | 110 | 112 | 104 | 104 | 103 | 108 | 107 | 116 | 113 | 118 | 118 | 113 | 113 | 103 | 102 | 97.2 | 92.5 | 130 | 107 | 119 | 107 | 116 | 104 | 120 | 108 | 95.9 | 108 | 85.6
COc1cc2nccc(Oc3ccc(NC(=O)Nc4ccc(F)cc4F)c(F)c3)c2cc1OC | 95.4 | 93.2 | 94.7 | 100 | 98.1 | 89.3 | 91.8 | 94.1 | 85 | 76.5 | 12.9 | 91.1 | 94.8 | 88.4 | 94.8 | 93.5 | 92.2 | 83.8 | 86 | 73.5 | 80.3 | 13.7 | 88 | 98.3 | 87.5 | 89.9 | 82.1 | 87.4 | 84.5 | 85.3 | 75 | 81.9 | 22.2
C#CCN(C)[C@H](C)Cc1ccccc1 | 92.5 | 93.5 | 93.7 | 89.8 | 106 | 93 | 73.2 | 89.5 | 92.7 | 80.1 | 88.3 | 82.9 | 82.3 | 88.9 | 83.7 | 92.2 | 92.7 | 89.3 | 82.8 | 81.5 | 87.9 | 89 | 79.3 | 88.6 | 83.1 | 86.5 | 83.8 | 88.3 | 93.5 | 82 | 80.9 | 80.2 | 79.5
CN1C(=O)\C(=C/C(=C1/NC2=C(F)C=C(I)C=C2)C(=O)NOCCO)C | 94.6 | 99.5 | 103 | 93.4 | 90.4 | 90.1 | 94.5 | 88.9 | 94.5 | 87.7 | 78.1 | 98.2 | 104 | 98.9 | 90.7 | 88.8 | 85.3 | 85.5 | 84.7 | 85.7 | 87.1 | 81.1 | 94.6 | 105 | 96.2 | 99.6 | 92.3 | 90.7 | 95.8 | 90.9 | 101 | 91 | 74.9
O=C(NC1CCNCC1)c1n[nH]cc1NC(=O)c1c(Cl)cccc1Cl | 106 | 111 | 117 | 111 | 115 | 111 | 112 | 54.1 | 11.6 | 12.2 | 9.17 | 114 | 115 | 112 | 109 | 113 | 121 | 111 | 50.9 | 12.9 | 12.1 | 7.33 | 114 | 112 | 109 | 115 | 116 | 112 | 103 | 79.1 | 13.7 | 13.8 | 10.1
COc1ccc(Cc2nccc3cc(OC)c(OC)cc23)cc1OC | 122 | 120 | 117 | 120 | 125 | 122 | 119 | 116 | 115 | 107 | 96.5 | – | – | – | – | – | – | – | – | – | – | – | 121 | 114 | 126 | 126 | 123 | 126 | 121 | 119 | 105 | 111 | 78.5
Cc1cc(O)c2c3c4c(cc(O)c13)C(C)(C)C(=O)c1c(O)cc(O)c(c1-4)C2=O | 104 | 108 | 111 | 107 | 111 | 106 | 113 | 107 | 106 | 105 | 39 | 107 | 106 | 109 | 99.8 | 114 | 107 | 115 | 109 | 110 | 97.2 | 42.2 | 103 | 112 | 117 | 109 | 107 | 101 | 111 | 104 | 105 | 93.2 | 35.2
